Experimental data taken from US12618845B2, “Methods and compositions for protein sequencing” (Quantum-Si Incorporated, priority 2018, dated 2026).
“Also recorded” adds a separate entry of the source. Square brackets hold non-standard residues; d marks the D form. Ends that are not written are not given here. Lys(N3) = [N-]=[N+]=NCCCC[C@H](N)C(=O)O

Molecular target: T1, rat aminopeptidase N (Rat APN) (Rattus norvegicus, UniProt P15684)
T1 sequence (P15684 1-965): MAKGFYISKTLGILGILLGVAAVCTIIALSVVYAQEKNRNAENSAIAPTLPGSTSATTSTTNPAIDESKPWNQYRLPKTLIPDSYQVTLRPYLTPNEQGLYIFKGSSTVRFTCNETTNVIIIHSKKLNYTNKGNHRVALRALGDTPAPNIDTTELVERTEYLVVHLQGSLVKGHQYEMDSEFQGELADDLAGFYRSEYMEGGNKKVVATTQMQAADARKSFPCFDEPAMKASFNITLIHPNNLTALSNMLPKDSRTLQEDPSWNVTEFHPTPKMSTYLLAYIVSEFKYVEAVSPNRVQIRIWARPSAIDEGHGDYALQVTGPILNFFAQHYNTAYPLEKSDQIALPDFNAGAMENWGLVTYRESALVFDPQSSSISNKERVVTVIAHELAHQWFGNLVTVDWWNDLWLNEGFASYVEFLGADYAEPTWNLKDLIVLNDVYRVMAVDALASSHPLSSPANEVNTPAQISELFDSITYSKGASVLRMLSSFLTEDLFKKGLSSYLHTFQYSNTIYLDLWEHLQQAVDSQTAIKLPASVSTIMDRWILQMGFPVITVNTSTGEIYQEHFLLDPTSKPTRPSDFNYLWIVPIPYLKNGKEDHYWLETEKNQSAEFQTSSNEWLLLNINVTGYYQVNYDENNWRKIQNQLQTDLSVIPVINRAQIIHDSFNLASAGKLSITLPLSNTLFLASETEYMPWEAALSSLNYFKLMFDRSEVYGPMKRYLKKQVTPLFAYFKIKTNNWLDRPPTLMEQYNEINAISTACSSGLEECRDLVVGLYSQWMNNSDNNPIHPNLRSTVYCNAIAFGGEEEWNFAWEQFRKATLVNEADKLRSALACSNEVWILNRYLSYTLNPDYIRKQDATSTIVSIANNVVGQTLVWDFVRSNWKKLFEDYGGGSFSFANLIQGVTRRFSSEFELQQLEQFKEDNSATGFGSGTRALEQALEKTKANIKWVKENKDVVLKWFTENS
Experiment: Terminal amino acid cleavage of peptide-linker conjugates monitored by LCMS, Rat APN
Format: biochemical
Conditions: incubated with Rat APN
Procedure: (§1) The peptide-linker conjugates were evaluated for amino acid cleavage at peptide N-termini by N-terminal aminopeptidases (Table 6, below).
(§2) The peptide-linker conjugates shown in Table 6 were incubated with either proline iminopeptidase (“PIP”) or rat aminopeptidase N (“Rat APN”), and peptide cleavage was monitored by LCMS. All other cleavage reactions were measured in a similar manner.

Row | Substance | Cleaved by Rat APN
1 | FFMFFM{LYS(N3)} (FFMFFM[Lys(N3)]; also: oligo linker) [Entry 6, 73, aromatic class, oligo linker] | Yes
2 | KKMKKM{LYS(N3)} [3] (KKMKKM[Lys(N3)]; also: oligo-PEG linker) [Entry 3, 71, positive class, oligo-PEG linker] | No
3 | KKMKKM{LYS(N3)} [2] (KKMKKM[Lys(N3)]; also: oligo linker) [Entry 2, 71, positive class, oligo linker] | No
4 | AAMAAM{LYS(N3)} [Entry 7] | Yes
5 | DDMDDM{LYS(N3)} [Entry 5] | Yes
6 | KKMKKM{LYS(N3)} [4] (KKMKKM[Lys(N3)]; also: PEG4 linker) [Entry 4, 71, positive class, PEG4 linker] | Yes

Tested on: amino acid at a terminal position of a polypeptide
Experiment: not given
Conditions: amino acid identity at a terminal position of a polypeptide; phospho-Y also at an internal position; cited from earlier work

Row | Substance | Binding Pref.
7 | H. sapiens p62 fragment 1-310: amino acid recognition protein, SEQ ID NO: 26 | K, R, H,; also recorded: W, F, Y
8 | H. sapiens p62 fragment 126-180: amino acid recognition protein, SEQ ID NO: 28 | K, R, H,; also recorded: W, F, Y
9 | Rattus norvegicus p62 protein: amino acid recognition protein, SEQ ID NO: 30 | K, R, H,; also recorded: W, F, Y
10 | H. sapiens Src tyrosine kinase SH2 domain: amino acid recognition protein, SEQ ID NO: 24 | phospho-Y
11 | H. sapiens p62 fragment 1-180: amino acid recognition protein, SEQ ID NO: 27 | K, R, H,; also recorded: W, F, Y

Tested on: proline iminopeptidase (PIP)
Experiment: Terminal amino acid cleavage of peptide-linker conjugates monitored by LCMS, PIP
Format: biochemical
Conditions: incubated with PIP
Procedure: as §1, §2

Row | Substance | Cleaved by PIP
12 | DPDPDP{LYS(N3)} [Entry 9] | Yes
13 | KPKPKP{LYS(N3)} [Entry 10] | No
14 | KPKPKP{LYS(N3)} [Entry 11] | Yes
15 | FPFPFP{LYS(N3)} [Entry 8] | Yes
